Literature values as cited in patent publication US20090048110A1, “Orchid Culturing Method” (priority 2005, published 2009).

Tested on: Dendrobium
Details: application to the mature pseudobulbs, but not the developing ones

Structure (SMILES): c1ccc(CNc2ncnc3nc[nH]c23)cc1 [6-BAP, 6-benzylaminopurine]
- triggering of spiking: shown to trigger spiking
